According to patent publication US6346533B1, “Intraconazole exhibiting an improved solubility, a method of preparing the same and a pharmaceutical composition for oral administration comprising the same” (Dong-A Pharmaceutical Co., Ltd., priority 1997, dated 2002):
In brackets after ≈: the same amount, converted by molar mass.

Columns and labels:
[1] = cited from earlier work
[2] = n-octanol and aqueous buffer solution of pH 8.1; cited from earlier work
[3] = Determination of solubility in artificial gastric juice; type: physicochemical; conditions: 2 hours; for Solubility: artificial gastric juice, 37° C., pH 1.2
Method: Excess of itraconazole from Example 1 and conventional itraconazole prepared without dissolution-induced drying were added to artificial gastric juice of pH 1.2 and shaken at 37° C. for 2 hours, respectively. Each of the mixture were filtered through a membrane filter with pore diameter of […] and each of the filtrate was subjected to high-performance liquid chromatography, thereby obtaining gastric juice solubility.

Compound | Solubility in water [1] | log partition coefficient [2] | Solubility relative to itraconazole without dissolution-induced drying ([3]; artificial gastric juice pH 1.2, 37° C.) [times] | Solubility [3] [µg/mL]
CCC(C)n1ncn(-c2ccc(N3CCN(c4ccc(OCC5COC(Cn6cncn6)(c6ccc(Cl)cc6Cl)O5)cc4)CC3)cc2)c1=O (racemic) [Itraconazole, itraconazole] | less than 1 μg/ml | 5.66 | – | –
CCC(C)n1ncn(-c2ccc(N3CCN(c4ccc(OCC5COC(Cn6cncn6)(c6ccc(Cl)cc6Cl)O5)cc4)CC3)cc2)c1=O (centres unmarked) [Itraconazole of Example 1, itraconazole] | – | – | 62 | 218.6 (≈ 310 µM)
CCC(C)n1ncn(-c2ccc(N3CCN(c4ccc(OCC5COC(Cn6cncn6)(c6ccc(Cl)cc6Cl)O5)cc4)CC3)cc2)c1=O (centres unmarked) [The conventional itraconazole without dissolution-induced dr] | – | – | – | 3.5 (≈ 4.96 µM)
